According to US20020064883A1, “Measurement and quantification of 17 ketosteroid-sulfates as a biomarker of biological age” (priority 2000, published 2002):

Test system: Anabolic/Catabolic Index (ACI)
Assay: Human clinical trial: effect of treatment on urinary Anabolic/Catabolic Index (ACI)
Type: in vivo
Experimental: The concentration of 17-KS-S in the sample was calculated from the ratio of the peak area of the compound of interest to that of the external standard multiplied by its concentration. The concentration of creatinine in urine was measured by a colorimetric method. The urinary Anabolic/Catabolic Index (ACI=X/Y) was calculated as a ratio of total 17-ketosteroid sulfate concentration (X, ng/μL) to creatinine concentration (Y, μg/μL).
There were two objectives in this example. The first was to investigate the ACI-age relationship using baseline information of ACI and the second was to investigate effects of four treatment groups on ACI.
There were 71 individuals for treatment allocation. They were identified with a number of 1 through 72 (69 was not used). Of these 71 individuals, five (subject identification numbers=3, 22, 24, 26 and 65) were not included in the data set of ACI measurements. Consequently, there were 66 individuals represented in the ACI information. Among the 66 individuals, three (subject ID=1, 9 and 60) had only baseline measurements. These three individuals contributed to the analysis of age/ACI relationship only. Therefore, the data set for looking at treatment effects consisted of 63 individuals. Not all of the 63 individuals have six serial observations.
A 24-hour urine specimen was collected from each individual before treatment. The urine specimens were quickly aliquoted, frozen, and immediately shipped on dry ice by overnight service for analysis. A ratio of total 17-ketosteroid sulfate concentration (ng/μL) to creatinine concentration (mg/mL) was calculated and expressed as ACI. Subsequent to treatment urine specimens were collected and analyzed at 24 hours. […] The fitted line has a negative slope (estimate of the slope is −0.061239 and is statistically significant from zero with p-value being equal to 0.0034.). Pearson correlation is estimated to be −0.35510 (p=0.0034). These findings indicate that ACI level decreases with ages between 40 and 65.
This part of the analysis was performed to determine if any of three different treatments affect the ACI level. That is to check whether the ACI level changes under and after termination of treatment. There were four treatment groups, referred to as groups 1-4. The individuals in Group 1 were given a placebo. The individuals in Group 2 were treated with 7-keto DHEA (25 mg/day dosage). The individuals in Group 3 were treated with Longevity Signal Formula (LSV) (2.008 mg/day dosage). The individuals in Group 4 were treated with Longevity Signal Formula (LSV) and Renewal Herbal Formula (Renewal).
FIG. 5 illustrates the plots of the individual profile for each treatment group for weeks 1-5. Each individual's serial observations are connected with a line to emphasize the trend over time. Measurements at week zero represent ACI prior treatment. Measurements at weeks 1-4 represent the ACI level after receiving treatments for 1-4 weeks respectively. Measurements at week 5 represent the ACI level three days after termination of treatment. FIG. 6 plots the mean responses at each point in time plus two standard errors.

With C[C@]12CC[C@H](O)CC1=CC(=O)[C@@H]1[C@@H]2CC[C@]2(C)C(=O)CC[C@@H]12 [7-keto DHEA] the “Effect of treatment on ACI level (in words)” value (under treatment, weeks 1-4 vs baseline) was “does not change the ACI level at all”, the “Mean of difference in ACI” value (week 1 − week 0 (week 0 = baseline; paired t-test)) was −0.04 and the “Mean of difference in ACI” value (week 2 − week 0) was 0.20. The “Mean of difference in ACI” value (week 2 − week 1) was 0.23, the “Mean of difference in ACI” value (week 3 − week 0) was −0.12 and the “Mean of difference in ACI” value (week 3 − week 1) was −0.08. For the same compound, the “Mean of difference in ACI” value (week 3 − week 2) was −0.31, the “Mean of difference in ACI” value (week 4 − week 0) was −0.12 and the “Mean of difference in ACI” value (week 4 − week 1) was −0.09. The “Mean of difference in ACI” value (week 4 − week 2) was −0.32, the “Mean of difference in ACI” value (week 4 − week 3) was −0.01 and the “Mean of difference in ACI” value (week 5 − week 0 (week 5 = three days after termination of treatment)) was −0.10. For the same compound, the “Mean of difference in ACI” value (week 5 − week 1) was −0.07, the “Mean of difference in ACI” value (week 5 − week 2) was −0.30 and the “Mean of difference in ACI” value (week 5 − week 3) was 0.01. For the same compound, the “Mean of difference in ACI” value (week 5 − week 4) was 0.02.
